Reference: patent US9945845B2, “Methods of screening using amphibians” (priority 2009, dated 2018)
Read-outs that look alike come from different tables or passages of the source.

Experiments:
[1] = test system: blood vessel development and/or lymphangiogenesis in Xenopus embryos; type: in vivo, Xenopus laevis; conditions: for blood vessel development phenotype (apj expression, in words): 20 μM from stage 31, fixed at stage 35/36; for lymph vessel development phenotype (vegfr3 expression, in words): 20 μM from stage 31, fixed at stage 42; for ALH phenotype: anterior lymph heart; for ALH phenotype / ALS phenotype / ISV phenotype / PCV phenotype / PLV phenotype / VVN phenotype: Xenopus embryos; for ALS phenotype: anterior lymph sac; for ISV phenotype: intersomitic vessels; for PCV phenotype: posterior cardinal vein; for PLV phenotype: posterior lymph vessels; for VVN phenotype: vitelline vein network
Protocol: All chemicals were purchased from Sigma and 10-mM stock solutions in DMSO were prepared. Chemicals were used at a final concentration of 20 μM in screening medium to treat homozygous albino Xenopus embryos, which lack natural pigmentation. Chemical treatments of embryos (n=7 per well) was initiated at stage 31 (37 hpf) and terminated at stages 35/36 (50 hpf) or 42 (80 hpf). Embryos were fixed in 4% paraformaldehyde and processed for whole mount in situ hybridization.
Where albino embryos were used, the bleaching step was omitted. Semi-automated whole mount in situ hybridizations were performed using the Biolane HTI machine (Hölle & Hüttner AG, Germany). […] Images were captured using a stereomicroscope (SteREO Lumar V12; Carl Zeiss) equipped with a digital camera (AxioCam Color; Carl Zeiss). Composite figures were organized and labeled using Adobe Photoshop CS2 and Adobe Illustrator CS software.
Edema formation or late-stage lethality may result from excretory system defects, (cardio)vascular and/or lymphatic vascular pathologies. […] Embryos were fixed for in situ hybridization either at stage 35/36 to analyze vasculogenesis and intersomitic vein angiogenesis defects or at stage 42 to evaluate possible defects in lymph vessel development (FIGS. 3-5).

HUVEC [2] = experiment: HUVEC cell proliferation assay; type: cell-based, human; conditions: 10 μM in 0.1% DMSO, 48 hours; for activity at 10 µM: Homo sapiens, HUVEC, 48 h, read-out: HUVEC proliferation
Protocol: (§1) Human umbilical vein endothelial cells (HUVEC) were purchased from PromoCell. […] HUVEC and LEC were cultured in endothelial basal medium EBM (Cambrex) supplemented with 20% fetal bovine serum (Invitrogen), antibiotic-antimycotics (100 U/ml penicillin, 100 μg/ml streptomycin, 250 ng/ml amphotericin; Invitrogen). 2 mM L-glutamine (Invitrogen), 10 μg/ml hydrocortisone (Fluka) and 25 μg/ml N^6,2′-O-dibutyryladenosine 3′,5′-cyclic monophosphate sodium salt (Fluka) for up to eleven passages.
(§2) The intensity of fluorescence, which is proportional to the number of viable cells, was measured using a microplate reader (SpectraMax Gemini EM; Molecular Devices). The chemical treatments were performed in five replicates.
(§3) The cell proliferation assays were performed by treating the endothelial cell cultures with compounds at a screening dose of 10 μM in 0.1% DMSO for 48 hours (FIG. 6a; Table 10).

Xenopus embryos = conditions: for Lethality: — = no stage of lethality given; for Type of edema Ventral: ‡ = edemas also detected in the gut; for Onset (NF): onset of edema; for Embr. phen.: embryonic phenotype in the primary screen
Summary of the method: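 Stage 31 (37 hpf) Xenopus embryos, five per well, exposed to 20 µM compound in 1% DMSO at 23 °C for 4 days. Edema, lethality and other external phenotypes were scored daily by two investigators at stages 39, 41, 45 and 47.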

LEC [3] = experiment: cells; type: cell-based, human; conditions: for activity at 1 µM: Homo sapiens
Protocol: as §1
(§4) The effect of the selected chemicals on the formation of tube-like structures was performed as follows. […] After overnight incubation at 37° C. the treated cell cultures were fixed with 4% paraformaldehyde. Each chemical treatment was performed in triplicate and the experiment was repeated at least three times. Three representative images of hotspots with tube-like structures were taken per well using a digital camera (AxioCam MRm, Carl Zeiss) mounted on an inverted microscope (Axiovert 200M, Carl Zeiss). The length of the tube-like structures was measured using the IPLab software (BD Biosciences). For each experimental condition, results are represented as average total tube length (μm) per area (three image fields).
(§5) The effects of the selected compounds on endothelial tube formation was assessed after over treatment of LEC and HUVEC cultures at a compound concentration of 1 μM in 0.1% DMSO. The length of the tube-like structures was measured using the IPLab software.

HUVEC [4] = experiment: HUVEC tube formation assay; type: cell-based, human; conditions: 1 μM in 0.1% DMSO; for activity at 1 µM: Homo sapiens, HUVEC
Protocol: as §1, §4, §5

LEC [5] = experiment: LEC cell proliferation assay; type: cell-based, human; conditions: 10 μM in 0.1% DMSO, 48 hours; for activity at 10 µM: Homo sapiens, 48 h, read-out: LEC proliferation
Protocol: as §1, §2, §3

[6] = compounds causing edema, 20 μM, 1% DMSO, treatment from stage 31, scored to stage 47
[7] = 20 μM, 1% DMSO, treatment from stage 31, Nieuwkoop & Faber stage
[8] = 1 μM in 0.1% DMSO, overnight, read-out: LEC tube formation
[9] = 1 μM in 0.1% DMSO, read-out: LEC tube formation (tube length)
[10] = overnight, read-out: HUVEC tube formation
[11] = read-out: HUVEC tube formation (tube length)

Structure (SMILES) | blood vessel development phenotype (apj expression, in words) [1] | ISV phenotype [1] | PCV phenotype [1] | VVN phenotype [1] | activity at 10 µM (HUVEC [2]) [%] | Lethality (NF) (Xenopus embryos; [6]) | Type of edema Pericordial (Xenopus embryos; embryonic stage) | Lethality (Xenopus embryos; embryonic stage) | Onset (NF) (Xenopus embryos; [7]) | activity at 1 µM (LEC [3]; [8]) [%] | activity at 1 µM (LEC [3]; [9]) [%] | activity at 1 µM (HUVEC [4]; [10]) [%] | activity at 1 µM (HUVEC [4]; [11]) [%] | activity at 10 µM (LEC [5]) [%] | HUVEC proliferation (HUVEC [2]) | LEC tube formation (LEC [3]; 1 μM in 0.1% DMSO, overnight) | HUVEC tube formation (HUVEC [4]; overnight) | LEC proliferation (LEC [5]) | further results
CCn1c(=O)c2[nH]c(-c3ccccc3)nc2n(CC)c1=O [1,3-Diethyl-8-phenylxanthine] | hyperplasia of the VVN, while ISV angiogenesis occurred unaffected | normal | normal | hyperplastic | 85 to 115 | 45 NF | 41/42 | 45 embryonic stages according to Nieuwkoop and Faber (NF) | 41/42 | 85 to 115 | 90 | 115 to 150 | 123 | 85 to 115 |  |  |  |  | lymph vessel development phenotype (vegfr3 expression, in words) [1]: lymphangiogenesis was largely suppressed; ALH phenotype [1]: stunted; ALS phenotype [1]: stunted; PLV phenotype [1]: hypoplastic; Type of edema Ventral (Xenopus embryos; embryonic stage): 41/42
COc1cc2c(cc1O)CC[C@@H]1[C@@H]2CC[C@]2(C)[C@@H](O)CC[C@@H]12 [2-methoxyestradiol, 2-Hydroxyestradiol 2-methyl ether] |  | impaired | hypoplastic | hypoplastic |  | 33/34 | 33/34 | 33/34 | 33/34 |  |  |  |  |  | O (O, inactive or marginal effects (85-115% of control);) | − (−, moderate inhibition (50-85% of control):) | − − (− −, strong inhibition (<50% of control);) | − (−, moderate inhibition (50-85% of control):) | scored in the phenotypic Xenopus screens (Xenopus embryos; 20 μM, known antiangiogenic compounds): active; Embr. phen. (Xenopus embryos): EDE; LEC tube formation (tube length) (LEC [3]; 1 μM in 0.1% DMSO): 80 % of control; HUVEC tube formation (tube length) (HUVEC [4]): 40 % of control; effect on HUVEC tube formation (in words) (HUVEC [4]): blocked tube formation preferentially in HUVEC cultures; effect on LEC proliferation (in words) (LEC [5]): inhibited preferentially LEC proliferation
Nc1ccc2c3c(cccc13)C(=O)NC2=O [4-Amino-1,8-naphthalimide] | hyperplasia of the VVN, while ISV angiogenesis occurred unaffected | normal | normal | hyperplastic |  |  | 41/42 |  | 41/42 |  |  |  |  |  | + (+, moderate promotion (>115-150% of control).) | − (−, moderate inhibition (50-85% of control):) | O (O, inactive or marginal effects (85-115% of control);) | O (O, inactive or marginal effects (85-115% of control);) | lymph vessel development phenotype (vegfr3 expression, in words) [1]: lymphangiogenesis was largely suppressed; ALH phenotype [1]: stunted; ALS phenotype [1]: impaired; PLV phenotype [1]: hypoplastic; Embr. phen. (Xenopus embryos): EDE; Type of edema Proctodeal (Xenopus embryos; embryonic stage): 47 embryonic stages according to Nieuwkoop and Faber (NF); Type of edema Periocular (Xenopus embryos; embryonic stage, * = causing bulging eyes, # = bilateral, causing narrow-set eyes): 41/42*; effect on LEC tube formation (in words) (LEC [3]; 1 μM in 0.1% DMSO): preferentially blocked tube formation in LEC rather than HUVEC cultures
CCOC(=O)C1=C(C)NC(C)=C(C(=O)OC)C1c1cccc(Cl)c1Cl (centres unmarked) [Felodipine] |  |  |  |  | 85 to 115 | 45 NF | 41/42 | 45 embryonic stages according to Nieuwkoop and Faber (NF) | 41/42 | 85 to 115 |  | 50 to 85 |  | 85 to 115 |  |  |  |  | Type of edema Pronephric (Xenopus embryos; embryonic stage): 41/42; Type of edema Ventral (Xenopus embryos; embryonic stage): 41/42
O=Nc1c(-c2c(O)[nH]c3ccccc23)[nH]c2ccccc12 [Indirubin-3′-oxime] |  |  |  |  | 50 to 85 |  |  |  |  |  |  | 50 to 85 |  | 85 to 115 |  |  |  |  | Lethality (NF) (Xenopus embryos; Xenopus laevis, in vivo): 45 NF; scored in the phenotypic Xenopus screens (Xenopus embryos; in vivo): active; activity at 1 µM (LEC [3]; read-out: LEC tube formation): 85 to 115%
Cl.c1ccc(CN2CCC3(CCCc4ccccc43)CC2)cc1 [L-687, 384 hydrochloride] | did not affect vascular development |  |  |  |  |  |  |  |  |  |  |  |  |  | + (+, moderate promotion (>115-150% of control).) | − (−, moderate inhibition (50-85% of control):) | − (−, moderate inhibition (50-85% of control):) | O (O, inactive or marginal effects (85-115% of control);) | 
CC1=C(/C=C/C(C)=C/C=C/C(C)=C/C(=O)O)C(C)(C)CCC1 [Retinoic acid] |  |  |  |  | 115 to 150 | 40 NF |  | 39 embryonic stages according to Nieuwkoop and Faber (NF) |  | 50 to 85 | 50 to 85 | 50 to 85 | 50 to 85 | 115 to 150 | + (+, moderate promotion (>115-150% of control).) |  |  | + (+, moderate promotion (>115-150% of control).) | Type of edema Proctodeal (Xenopus embryos; embryonic stage): 40 embryonic stages according to Nieuwkoop and Faber (NF); Type of edema Pronephric (Xenopus embryos; embryonic stage): 39 embryonic stages according to Nieuwkoop and Faber (NF); Type of edema Cerebral (Xenopus embryos; embryonic stage, + = cerebral edema extending dorso-anteriorly and displacing the eyes): 39+ embryonic stages according to Nieuwkoop and Faber (NF)
Oc1c2ccccc2c2c3c(cccc13)N=N2 [SP600125, 1,9-Pyrazoloanthrone] |  |  |  |  | 85 to 115 |  |  |  |  | 50 to 85 | 59 | 85 to 115 | 110 | 85 to 115 |  |  |  |  | Lethality (NF) (Xenopus embryos; compounds causing lethality, 20 μM, 1% DMSO, treatment from stage 31, Nieuwkoop & Faber stage): 41 NF
